# Structures can show the parent of a compound that is named as a salt. Where two headings read alike, the source gives them in different places.
# How the values were obtained:
# [1] = Aqueous stability assay (HPLC, pseudo first-order half-life); format: physicochemical; settings: for stability in the acidic aqueous mediums: pH 4.0 and 5.5
# [2] = Plasma stability assay (LC-MS/MS); format: in vitro ADME; settings: for formation of the corresponding oxime (progesterone C20-oxime) / half-life / Plasma t1/2 / Plasma % rmn at 2 h: human plasma; for half-life / Plasma t1/2 / Plasma % rmn at 2 h: 37° C., 3 μM; for half-life: read-out: Plasma t1/2 (converted)
# In short: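 Compound (3 μM final; 0.03% DMSO, up to 0.6% methanol) was incubated in human plasma at 37° C for up to 240 min, sampled at 0, 15, 30, 60, 120, 180 and 240 min in duplicate. Samples were quenched in cold acetonitrile or methanol with internal standard and quantified by LC-MS/MS (ESI+, MRM). Stability was derived from the slope of ln(% parent remaining) versus time.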
# [3] = Nephelometry (aqueous solubility); format: physicochemical; settings: DPBS with 1% DMSO, aqueous buffer, kinetic from dmso stock, DPBS pH 7.0-7.3, 1% DMSO, 25° C.
# Excerpt: Well A1 of the plate contained 100% DMSO.
# [4] = test system: rat disease model of acute TBI; test: Edema assay in rat model of acute TBI (controlled cortical impact); format: in vivo; settings: for reduced brain edema: 10 mg/kg IM at 1 and 6 h post-TBI, edema at 24 h
# Protocol: A prodrug dose of 10 mg/kg was chosen and administered IM at 1 and 6 hours post-injury. Prodrug dosage is equimolar±5% with respective to the parent compound.
# Subjects—Male SD rats weighing 250-350 g at the time of injury were used for the efficacy study, which was conducted in our facility at Emory University. The rats were maintained on a reverse 12:12 light-dark cycle at 22±1° C. with appropriate humidity levels. After one week of quarantine the rats were handled at least 3 times prior to surgery. This study was conducted in a facility approved by the American Association for the Accreditation of Laboratory Animal Care (AAALAC) in accordance with all National Institutes of Health guidelines. All experimental animal procedures were approved by the Emory University Institutional Animal Care and Use Committee.
# Contusion Injury—Rats were anesthetized using isoflurane gas (5% induction, 1.5% maintenance, 700 mmHg N2O, 500 mmHg O2) and then mounted in a Kopf stereotaxic device (David Kopf Instruments, Tujunga, CA, USA). The scalp incision area was shaved and sterilized with Betadine® antiseptic and 70% isopropanol. Physiological parameters were monitored with pulse oximetry (SurgiVet model V3304): heart rate was maintained above ˜300 beats per minute and SpO2 kept above 90%. Core body temperature (˜37° C.) was maintained with a homeothermic heating blanket system (Harvard Apparatus, Holliston, MA, USA). Under aseptic conditions, a midline incision was made into the skin and fascia covering the skull. Cotton swabs were used to staunch and clean any fascial bleeding. […]
# Treatment—Animals were randomly assigned to one of four treatment groups. […] Percent change in brain tissue water content was measured.
# Edema Assay—Edema was measured at 24 h after surgery. […] The percent water content was calculated by [(wet wt-dry wt)/wet wt]×100. The percent difference in water content between the anterior peri-contusional and the posterior distal section was calculated for each sample by: [(anterior H2O %-posterior H2O %)/(posterior H2O %)]×100.
# [5] = male, Sprague Dawley, rat, in vivo
# Protocol: (§1) Test System—Healthy male Sprague Dawley rats (8-12 weeks old) weighing between 200 to 250 g were procured from Global, India. […] Temperature and humidity were maintained at 22±3° C. and 30-70%, respectively and illumination was controlled to give a sequence of 12 h light and 12 h dark cycle. Temperature and humidity were recorded by auto-controlled data logger system. All the animals were provided with laboratory rodent diet (Envigo Research private Ltd, Hyderabad). Reverse osmosis water treated with ultraviolet light was provided ad libitum.
# (§2) Design—Rats (n=3 per treatment group, serial sampling) were administered a solution of either normal saline vehicle or test compound in normal saline at 2 mg/kg (IV) or 10 mg/kg (IM) with a dosing volume of 5 mL/kg (IV) or 1 mL/kg (IM).
# (§3) Sample Collection—Blood samples (approximately 60 μL) were collected under light isoflurane anesthesia (Surgivet®) from retro orbital plexus from a set of three rats at 0.08, 0.25, 0.5, 1, 2, 4, 6, 8 and 10 h (IV) or 0.25, 0.5, 1, 2, 4, 6, 8 and 10 h (IM). Immediately after blood collection, plasma was harvested by centrifugation 4000 rpm, 10 min at 40° C. and samples were stored at −70±10° C. until bioanalysis.
# (§4) Data Analysis—Concentrations of the test compound and its parent compound, progesterone C20-oxime, in rat plasma were determined by fit-for-purpose LC-MS/MS method by Sai Life Sciences. […] Cmax represents the mean observed maximum concentration of analyte. Tmax represents the average time at observed Cmax. Areas under the curve (AUC0-last) were calculated via the linear trapezoidal rule using GraphPad Prism v9.
# [6] = Rat plasma pharmacokinetic study; settings: IV and IM routes
# Protocol: as §1, §2, §3, §4
# [7] = acetate buffer pH 4.0, read-out: Acetate buffer (pH 4.0) t1/2 (converted)
# [8] = acetate buffer pH 5.5, read-out: Acetate buffer (pH 5.5) t1/2 (converted)
# [9] = buffer, DPBS pH 7.0-7.3, 1 mg/mL, room temperature, read-out: PBS t1/2 (converted)
smiles,measurement,setting,value
"CNCCN(C)C(=O)O/N=C(\C)[C@H]1CC[C@H]2[C@@H]3CCC4=CC(=O)CC[C@]4(C)[C@H]3CC[C@]12C [32b, (E)-9-((8S,9S,10R,13S,14S,17S)-10,13-dimethyl-3-oxo-2,3,6,7,8,9,10,11,12,13,14,15,16,17-tetradecahydro-1H-cyclopenta[a]phenanthren-17-yl)-5-methyl-7-oxa-2,5,8-triazadec-8-en-6-one hydrochloride]",PBS t1/2,"[1]; DPBS pH 7.0-7.3, 1 mg/mL, room temperature",46.9 ± 0.8 h
same,half-life,[1]; [7],96 days
same,half-life,[1]; [8],80 days
same,stability in the acidic aqueous mediums,[1],stable
same,stability in human plasma,[2],unstable
same,formation of the corresponding oxime (progesterone C20-oxime),[2],observed
same,half-life,[2],1.5 h
same,solubility at 90 min,[3],> 750 µM
same,reduced brain edema,[4],31%
"C/C(=N\OC(=O)NCCN(C)C)[C@H]1CC[C@H]2[C@@H]3CCC4=CC(=O)CC[C@]4(C)[C@H]3CC[C@]12C.Cl [compound 34, (E)-9-((8S,9S,10R,13S,14S,17S)-10,13-dimethyl-3-oxo-2,3,6,7,8,9,10,11,12,13,14,15,16,17-tetradecahydro-1H-cyclopenta[a]phenanthren-17-yl)-2-methyl-7-oxa-2,5,8-triazadec-8-en-6-one hydrochloride]",half-life,"[1]; buffer, DPBS pH 7.0-7.3, 1 mg/mL, room temperature, d (days), read-out: PBS t1/2 (converted)",32.8 days
same,Plasma t1/2,[2],>3.5 h
same,solubility at 90 min,[3],> 750 µM
C/C(=N/OCOP(=O)([O-])[O-])[C@H]1CC[C@H]2[C@@H]3CCC4=CC(=O)CC[C@]4(C)[C@H]3CC[C@]12C.[Na+].[Na+] [EIDD-1723],"increase in the dose-corrected exposure to parent progesterone C20-oxime, IM compared to the IV route",[5],3 fold
same,Parent AUClast,"[5]; im, 10 mg/kg",753 ± 29 ng·h/mL
same,Parent AUClast,"[5]; iv, 2 mg/kg",48 ± 6 ng·h/mL
same,Parent Cmax,"[5]; iv, 2 mg/kg",219 ng/mL
"C/C(=N\OC(=O)N(C)C[C@@H]1CCCN1)[C@H]1CCC2[C@@H]3CCC4=CC(=O)CC[C@]4(C)[C@H]3CC[C@@]21C.Cl (stereo partly drawn) [32j, (8S,9S,10R,13S,17S)-10,13-dimethyl-17-((E)-1-(((methyl(((S)-pyrrolidin-2-yl)methyl)carbamoyl)oxy)imino)ethyl)-1,2,6,7,8,9,10,11,12,13,14,15,16,17-tetradecahydro-3H-cyclopenta[a]phenanthren-3-one hydrochloride]",half-life,[1]; [7],48 days
same,half-life,[1]; [8],2.4 days
same,half-life,[1]; [9],0.0792 ± 0.00417 days
same,stability in the acidic aqueous mediums,[1],stable
same,stability in human plasma,[2],unstable
same,formation of the corresponding oxime (progesterone C20-oxime),[2],observed
same,half-life,[2],< 0.1 h
same,reduced brain edema,[4],40%
same,"reducing brain edema, comparison with EIDD-1723",[4]; 10 mg/kg dose IM,equally efficacious
same,formation of parent progesterone C20-oxime,[6],rapid and extensive
"CCNCCN(CC)C(=O)O/N=C(\C)[C@H]1CC[C@H]2[C@@H]3CCC4=CC(=O)CC[C@]4(C)[C@H]3CC[C@]12C.Cl [54a, (E)-2-((8S,9S,10R,13S,14S,17S)-10,13-dimethyl-3-oxo-2,3,6,7,8,9,10,11,12,13,14,15,16,17-tetradecahydro-1H-cyclopenta[a]phenanthren-17-yl)-6-ethyl-4-oxa-3,6,9-triazaundec-2-en-5-one hydrochloride]",half-life,[1]; [9],> 1 days
same,Plasma % rmn at 2 h,[2],71%
same,solubility at 90 min,[3],> 750 µM
"C/C(=N\OC(=O)NCCN)[C@H]1CC[C@H]2[C@@H]3CCC4=CC(=O)CC[C@]4(C)[C@H]3CC[C@]12C [32a, (8S,9S,10R,13S,14S,17S)-17-((E)-1-((((2-aminoethyl)carbamoyl)oxy)imino)ethyl)-10,13-dimethyl-1,2,6,7,8,9,10,11,12,13,14,15,16,17-tetradecahydro-3H-cyclopenta[a]phenanthren-3-one hydrochloride]",half-life at 1 mg/mL,[1]; [9],> 30 h
same,Plasma t1/2,[2],>2 h
same,solubility at 90 min,[3],> 750 µM
"CNCCN(CC(C)C)C(=O)O/N=C(\C)[C@H]1CC[C@H]2[C@@H]3CCC4=CC(=O)CC[C@]4(C)[C@H]3CC[C@]12C.O=C(O)C(F)(F)F [53e, (E)-9-((8S,9S,10R,13S,14S,17S)-10,13-dimethyl-3-oxo-2,3,6,7,8,9,10,11,12,13,14,15,16,17-tetradecahydro-1H-cyclopenta[a]phenanthren-17-yl)-5-isobutyl-7-oxa-2,5,8-triazadec-8-en-6-one 2,2,2-trifluoroacetate]",half-life,[1]; [9],> 1 days
same,Plasma % rmn at 2 h,[2],83%
same,solubility at 90 min,[3],> 750 µM
